In this data set the test system is rodent carcinogenicity bioassays, tumor incidence. Description: CCRIS carcinogenicity studies. The method, boiled down: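 NCI-built, expert-reviewed records of carcinogenicity and related test outcomes (mutagenicity, tumor promotion/inhibition) compiled from published and report sources, historical span 1985-2011, not updated.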

For five molecules, carcinogen call results are on record in PubChem BioAssay AID1259411 (Chemical Carcinogenesis Research Information System (CCRIS), 2018).

Calls of active or inactive are those of the source. How the calls were made is not given here.

As for `Clc1cc2c(c(Cl)c1Cl)Oc1cc(Cl)c(Cl)c(Cl)c1O2`, the carcinogen call is, setting by setting: (Species: MOUSE, Strain/Sex: B6C3F1/FEMALE, Route: GAVAGE, Dose: 0, 2.5, 5.0, 10.0 UG/KG/WK (9:1 CORN OIL-ACETONE, 2 D/WK) FOR 104 WK (STUDY DURATION: 105-108 WK), Dose: 0, 2.5, 5.0, 10.0 UG/KG/WK (9:1 CORN OIL-ACETONE, 2 D/WK) FOR 104 WK (STUDY DURATION: 105-108 WK), Tumor Site: Type of Lesion: LIVER: HEPATOCELLULAR ADENOMA OR CARCINOMA) “active; positive”; (Species: MOUSE, Strain/Sex: B6C3F1/MALE, Route: GAVAGE, Dose: 0, 1.25, 2.5, 5 UG/KG/WK (9:1 CORN OIL-ACETONE, 2 D/WK) FOR 104 WK (STUDY DURATION: 105-108 WK), Dose: 0, 1.25, 2.5, 5 UG/KG/WK (9:1 CORN OIL-ACETONE, 2 D/WK) FOR 104 WK (STUDY DURATION: 105-108 WK), Tumor Site: Type of Lesion: LIVER: HEPATOCELLULAR ADENOMA, CARCINOMA) “active; positive”; (Species: MOUSE, Strain/Sex: SWISS/FEMALE, Route: DERMAL, Dose: 0, 0.01 UG (SUSPENDED IN 0.1 ML ACETONE APPLIED 3 DAYS/WK)) “inactive; negative”; (Species: MOUSE, Strain/Sex: SWISS/MALE, Route: DERMAL, Dose: 0, 0.01 UG (SUSPENDED IN 0.1 ML ACETONE APPLIED 3 DAYS/WK)) “inactive; negative”; (Species: RAT, Strain/Sex: OSBORNE-MENDEL/FEMALE, Route: GAVAGE, Dose: 0, 1.25, 2.5, 5 UG/KG/WK (9:1 CORN OIL-ACETONE, 2 D/WK) FOR 104 WK (STUDY DURATION: 105-108 WK), Dose: 0, 1.25, 2.5, 5 UG/KG/WK (9:1 CORN OIL-ACETONE, 2 D/WK) FOR 104 WK (STUDY DURATION: 105-108 WK), Tumor Site: Type of Lesion: LIVER: NEOPLASTIC NODULE, HEPATOCELLULAR CARCINOMA) “active; positive”; (Species: RAT, Strain/Sex: OSBORNE-MENDEL/MALE, Route: GAVAGE, Dose: 0, 1.25, 2.5, 5 UG/KG/WK (9:1 CORN OIL-ACETONE, 2 D/WK) FOR 104 WK (STUDY DURATION: 105-108 WK), Dose: 0, 1.25, 2.5, 5 UG/KG/WK (9:1 CORN OIL-ACETONE, 2 D/WK) FOR 104 WK (STUDY DURATION: 105-108 WK), Tumor Site: Type of Lesion: LIVER: NEOPLASTIC NODULE, HEPATOCELLULAR CARCINOMA) “equivocal”.

Consider `Nc1ccc2cc3ccccc3cc2c1`, for which the carcinogen call was “active; positive” (Species: HAMSTER, Strain/Sex: SYRIAN, Route: DERMAL, Dose: 4 DROPS OF 1% SOLN IN ACETONE 2/WK FOR 10 WK, 8 DROPS FOR 40 WK, 4 DROPS FOR 5 WK, Tumor Site: Type of Lesion: INTEGUMENTARY SYSTEM (SKIN): PAPILLOMA, EPIDERMAL TUMOR); “active; positive” (Species: MOUSE, Strain/Sex: MALE,FEMALE, Route: DERMAL, Dose: 1% SATURATED SOLN IN ACETONE 2/WK (0.025 ML FOR 30 D OR 0.1 ML FOR 140 D), THEN 0.05 ML THEREAFTER, Tumor Site: Type of Lesion: INTEGUMENTARY SYSTEM (SKIN): SQUAMOUS CELL EPITHELIOMA); “active; positive” (Species: RAT, Strain/Sex: ALBINO/MALE, Route: DERMAL, Dose: 1% IN ACETONE 2/WK FOR 34-36 WK, Tumor Site: Type of Lesion: INTEGUMENTARY SYSTEM (SKIN): SQUAMOUS CELL CARCINOMA, BASAL CELL EPITHELIOMA, FIBROSARCOMA); “active; positive” (Species: RAT, Strain/Sex: F344/MALE,FEMALE, Route: DERMAL, Dose: 0.18 ML OF 1% SOLN IN ACETONE 2/WK FOR 180 OR 250-300 D, Tumor Site: Type of Lesion: INTEGUMENTARY SYSTEM (SKIN): SQUAMOUS CELL CARCINOMA, BASAL CELL EPITHELIOMA, FIBROSARCOMA); “active; positive” (Species: RAT, Strain/Sex: HOLTZMAN/MALE,FEMALE, Route: DERMAL, Dose: 0.18 ML OF 1% SOLN IN ACETONE 2/WK FOR 180 OR 250-300 D, Tumor Site: Type of Lesion: INTEGUMENTARY SYSTEM (SKIN): SQUAMOUS CELL CARCINOMA, BASAL CELL EPITHELIOMA, FIBROSARCOMA); “active; positive” (Species: RAT, Strain/Sex: LONG-EVANS/MALE,FEMALE, Route: DERMAL, Dose: 0.18 ML OF 1% SOLN IN ACETONE 2/WK FOR 180 OR 250-300 D, Tumor Site: Type of Lesion: INTEGUMENTARY SYSTEM (SKIN): SQUAMOUS CELL CARCINOMA, BASAL CELL EPITHELIOMA, FIBROSARCOMA). For the same molecule, where the note is “Species: RAT, Strain/Sex: SPRAGUE-DAWLEY/FEMALE, Route: GAVAGE, Dose: 0.05, 1.0, 2.5 MG IN 1 ML SESAME OIL 1/3 D FOR 10 D (TOTAL DOSE 0.5-25 MG), Dose: 0.05, 1.0, 2.5 MG IN 1 ML SESAME OIL 1/3 D FOR 10 D (TOTAL DOSE 0.5-25 MG), Tumor Site: Type of Lesion: MAMMARY GLAND”, the carcinogen call was “active; positive”.

For `Nc1ccc(O)c(N)c1`, the carcinogen call is “inactive; negative” (Species: MOUSE, Strain/Sex: B6C3F1/FEMALE, Route: GAVAGE, Dose: 0, 19, 38 MG/KG IN CORN OIL 5 D/WK FOR 104 WK (STUDY DURATION: 2 YR), Dose: 0, 19, 38 MG/KG IN CORN OIL 5 D/WK FOR 104 WK (STUDY DURATION: 2 YR)); “inactive; negative” (Species: RAT, Strain/Sex: F344/FEMALE, Route: GAVAGE, Dose: 0, 12.5, 25 MG/KG IN CORN OIL 5 D/WK FOR 104 WK (STUDY DURATION: 2 YR), Dose: 0, 12.5, 25 MG/KG IN CORN OIL 5 D/WK FOR 104 WK (STUDY DURATION: 2 YR)); “inactive; negative” (Species: RAT, Strain/Sex: F344/MALE, Route: GAVAGE, Dose: 0, 12.5, 25 MG/KG IN CORN OIL 5 D/WK FOR 104 WK (STUDY DURATION: 2 YR)).

For `CC(=O)CCNCN=O`, the carcinogen call reads like this: (Species: HAMSTER, Strain/Sex: SYRIAN/FEMALE, Route: SUBCUTANEOUS, Dose: 20.25, 40.5, 81MG/KG 1/WK FOR LIFE, Dose: 20.25, 40.5, 81MG/KG 1/WK FOR LIFE, Tumor Site: Type of Lesion: NASAL CAVITY: ADENOCARCINOMA, ORAL CAVITY (CHEEK POUCH): SQUAMOUS CELL PAPILLOMA, SQUAMOUS CELL CARCINOMA, COLON: CARCIN, Tumor Site: Type of Lesion: NASAL CAVITY: ADENOCARCINOMA, ORAL CAVITY (CHEEK POUCH): SQUAMOUS CELL PAPILLOMA, SQUAMOUS CELL CARCINOMA, COLON: CARCIN) “active; positive”; (Species: HAMSTER, Strain/Sex: SYRIAN/MALE, Route: SUBCUTANEOUS, Dose: 17.63, 35.25, 70.5 MG/KG 1/WKFOR LIFE, Dose: 17.63, 35.25, 70.5 MG/KG 1/WKFOR LIFE, Tumor Site: Type of Lesion: NASAL CAVITY: ADENOCARCINOMA, ORAL CAVITY (CHEEK POUCH): SQUAMOUS CELL PAPILLOMA, SQUAMOUS CELL CARCINOMA, COLON: CARCIN, Tumor Site: Type of Lesion: NASAL CAVITY: ADENOCARCINOMA, ORAL CAVITY (CHEEK POUCH): SQUAMOUS CELL PAPILLOMA, SQUAMOUS CELL CARCINOMA, COLON: CARCIN) “active; positive”.

Turning to `Nc1ccc2c(n1)[nH]c1ccccc12`, the carcinogen call is, setting by setting: (Species: MOUSE, Strain/Sex: CDF1/FEMALE, Route: ORAL, Dose: 0, 0.08% IN DIET FOR UP TO 685 D (STUDY DURATION: 685 D), Tumor Site: Type of Lesion: LIVER: HEPATOCELLULAR ADENOMA OR CARCINOMA, BLOOD VESSELS: HEMANGIOENDOTHELIAL SARCOMA) “active; positive”; (Species: MOUSE, Strain/Sex: CDF1/MALE, Route: ORAL, Dose: 0, 0.08% IN DIET FOR UP TO 685 D (STUDY DURATION: 685 D), Tumor Site: Type of Lesion: LIVER: HEPATOCELLULAR ADENOMA OR CARCINOMA, BLOOD VESSELS: HEMANGIOENDOTHELIOMA OR HEMANGIOENDOTHELIAL SARCOMA) “active; positive”; (Species: RAT, Strain/Sex: SPRAGUE-DAWLEY/FEMALE, Route: ORAL, Dose: 0, 75 MG/KG IN 5 ML CORN OIL 1/D ON DAYS 43-47 AND 50-54 OF AGE ADMINISTERED TO RATS PLACED ON HIGH-FAT (23.5% CORN OIL)) “inactive; negative”.
